Assays:
[1] = tested on: CA-IX-positive HT-29 cells; experiment: In vitro CA-IX affinity and specificity, cell binding, cells lysed at room temperature (Example 11); assay type: cell-based; conditions: for Inhibition of cell binding by acetazolamide: HT-29 cells, AZ 50 μM, 21% or 1% oxygen, lysis at room temperature; for Selectivity of binding to CA-IX: HT-29 vs MDA-MB-231 cells, room temperature lysis
Experimental: (§1) HT-29 cells (purchased from Dainippon Sumitomo Pharma Co., Ltd.) and MDA-MB-231 cells (purchased from Dainippon Sumitomo Pharma Co., Ltd.) were incubated in a 12-well plate (2.0×10^5 cells/well) at 37° C. for 24 hours under an atmosphere of 5% carbon dioxide and 21% oxygen, and then further incubated at 37° C. for 24 hours under an atmosphere of 5% carbon dioxide and 21% or 1% oxygen. After the culture medium was removed, Dulbecco's modified Eagle's medium (DMEM, 1 mL) containing[^111In]ITDA1 (14 kBq), [^111In]ITDA2 (26 kBq), or [^111In]ITDA3 (37 kBq) was added to each well, and then the incubation was performed at 37° C. for 2 hours under an atmosphere of 5% carbon dioxide and 21% or 1% oxygen. In addition, a separate plate was incubated in a similar manner as in the above except that acetazolamide (AZ, 50 μM) was added to [^111In]ITDA1 (14 kBq), [^111In]ITDA2 (26 kBq), or [^111In]ITDA3 (37 kBq) as a competitive compound for CA-IX. After that, each well was washed with 1 mL of phosphate-buffered saline (PBS, pH 7.4) (manufactured by NACALAI TESQUE, INC.), and the cells were lysed at room temperature in an aqueous solution of 1 N sodium hydroxide ([^111In]ITDA1: 0.25 mL×2, [^111In]ITDA2: 0.5 mL×2, and [^111In]ITDA3: 0.2 mL×2). The amount of radioactivity bound to the cells was measured by a gamma counter (model name: Wallac 1470 Wizard, PerkinElmer, Massachusetts, made in U.S.A., the same applies to the following examples).
(§2) FIG. 3A is a graph showing whether or not the affinity of compound [^111In]ITDA1 for CA-IX in each of the HT-29 cells and the MDA-MB-231 cells is inhibited by the coexistence of acetazolamide (AZ). Further, FIG. 3B is a graph showing whether or not the affinity of compound [^111In]ITDA2 for CA-IX in each of the HT-29 cells and the MDA-MB-231 cells is inhibited by the coexistence of acetazolamide (AZ). Moreover, FIG. 3C is a graph showing whether or not the affinity of compound [^111In]ITDA3 for CA-IX in each of the HT-29 cells and the MDA-MB-231 cells is inhibited by the coexistence of acetazolamide (AZ).

[2] = tested on: CA-IX-negative MDA-MB-231 cells; experiment: as above; assay type: cell-based; conditions: AZ 50 μM, 21% or 1% oxygen, lysis at room temperature
Experimental: as §1, §2

[3] = tested on: CA-IX-positive HT-29 cells; experiment: In vitro CA-IX affinity and specificity, cell binding, cells lysed at 37° C. (Example 18); assay type: cell-based; conditions: for Inhibition of cell binding by acetazolamide: HT-29 cells, normoxic and hypoxic; for Inhibition of cell binding by acetazolamide / Selectivity of binding to CA-IX: lysis at 37° C.; for Selectivity of binding to CA-IX: HT-29 vs MDA-MB-231 cells
Experimental: as §1
(§3) Example 18 was performed similarly as in Example 11 except that the cells were lysed in a constant temperature water bath at 37° C. The accumulation of radioactivity in each cell was expressed by % initial dose/mg protein obtained by dividing the ratio of the amount of radioactivity bound to each cell to the added amount of radioactivity by the amount of cell protein.

[4] = tested on: CA-IX-negative MDA-MB-231 cells; experiment: as above; assay type: cell-based; conditions: for Inhibition of cell binding by acetazolamide: MDA-MB-231 cells, normoxic and hypoxic, lysis at 37° C.
Experimental: as §1, §3

[5] = 1-octanol/PBS (pH 7.4) partition coefficient; assay type: physicochemical
Experimental: The 1-octanol/PBS (pH 7.4) partition coefficients of [^111In]ITDA1 and [^111In]ITDA2, which were obtained in Example 6, and [^111In]ITDA3 obtained in Example 10 were measured.
The above two phases were saturated with each other in advance, and 1-octanol (3 mL) and PBS (3 mL) were pipetted into a 15-mL test tube containing [^111In]ITDA1 (37 kBq), [^111In]ITDA2 (37 kBq), or [^111In]ITDA3 (370 kBq). The test tube was vortexed for 2 minutes and centrifuged (4,000 g, 5 minutes). 0.5 mL was taken from each of the 1-octanol phase and the PBS phase, and transferred to two test tubes, respectively for measurement. The residual PBS phase (1 mL), and newly prepared 1-octanol (3 mL) and PBS (2 mL) were pipetted into a new test tube. The amount of radioactivity in each test tube was measured by using a gamma counter. The partition coefficient was calculated by using the equation log Pow=log10[count1-octanol/countPBS]. As a result, the log Pow of [^111In]ITDA1 was −3.72±0.05, the log Pow of [^111In]ITDA2 was −2.32±0.01, and the log Pow of [^111In]ITDA3 was −3.47±0.09.

[6] = In vitro stability in mouse plasma; assay type: in vitro ADME; conditions: 37° C.; for Stability in mouse plasma: 24-hour incubation; for Stability (intact (%)): mouse plasma
Experimental: Blood was collected from a ddy mouse (purchased from Shimizu Laboratory Supplies Co., Ltd.), and centrifuged (1,200 g, 10 minutes) in a venous blood collection tube (manufactured by Becton, Dickinson and Company). The blood plasma (200 μL) was separated, a saline solution (185 kBq) of [^111In]ITDA1, [^111In]ITDA2, or [^111In]ITDA3 was added into the blood plasma, and the obtained mixture was incubated at 37° C. for 1, 4, 8, and for 24 hours (n=3). Further, into the incubated mixture, acetonitrile (200 μL) was added, and then the mixture was centrifuged (10,000 g, 5 minutes), the supernatant was filtered with COSMONICE Filter (S) (0.45 μm, 4 mm) (manufactured by NACALAI TESQUE, INC.), and the filtrate was analyzed by RP-HPLC under the following conditions. In this regard, the intact % in FIGS. 4A and 4B was determined from the area percentage of the RP-HPLC elution pattern.
Column: Cosmosil Cis column (5C18-PAQ, 4.6×250 mm)
Mobile phase: water/acetonitrile/trifluoroacetic acid (90: 10: 0.1 (0 min)→60: 40: 0.1 (30 min)), and flow rate for analysis: 1.0 mL/min

[7] = 1% Oxygen AZ(+), acetazolamide 50 μM
[8] = 21% Oxygen AZ(+), acetazolamide 50 μM

log Pow [5]	Stability in mouse plasma [6]	SMILES	Inhibition of cell binding by acetazolamide [1]	Selectivity of binding to CA-IX [1]	Inhibition of cell binding by acetazolamide [2]	Amount of binding to HT-29 cells [3, 7] [% initial dose/mg protein]	Amount of binding to HT-29 cells ([3]; 1% Oxygen AZ(−)) [% initial dose/mg protein]	Amount of binding to HT-29 cells [3, 8] [% initial dose/mg protein]	Amount of binding to HT-29 cells ([3]; 21% Oxygen AZ(−)) [% initial dose/mg protein]	Inhibition of cell binding by acetazolamide [3]	Selectivity of binding to CA-IX [3]	Amount of binding to MDA-MB-231 cells [4, 7] [% initial dose/mg protein]	Amount of binding to MDA-MB-231 cells ([4]; 1% Oxygen AZ(−)) [% initial dose/mg protein]	Amount of binding to MDA-MB-231 cells [4, 8] [% initial dose/mg protein]	Amount of binding to MDA-MB-231 cells ([4]; 21% Oxygen AZ(−)) [% initial dose/mg protein]	Inhibition of cell binding by acetazolamide [4]	other results
−3.72±0.05	sufficient stability	NS(=O)(=O)c1nn2cc(-c3ccc(NC(=O)CN4CCN(CC(=O)O)CCN(CC(=O)O)CCN(CC(=O)O)CC4)cc3)nc2s1.[111In+3] [[^111In]ITDA1, [^111In]indium(III)2,2′,2″-(10-(2-oxo-2-((4-(2-sulfamoylimidazo[2,1-b][1,3,4]thiadiazol-6-yl)phenyl)amino)ethyl)-1,4,7,10-tetraazacyclododecan-1,4,7-triyl) triacetic acid]	the inhibition was observed in the presence of acetazolamide	selectively bind to the CA-IX	the competitive inhibition was not observed	2.2 ± 0.5	198.9 ± 5.7	0.9 ± 0.2	118.1 ± 21.4	the inhibition was observed in the presence of acetazolamide	selectively bind to the CA-IX	0.1 ± 0.0	6.5 ± 0.8	0.1 ± 0.0	1.4 ± 0.3	the competitive inhibition was not observed	–
−2.32±0.01	sufficient stability	NS(=O)(=O)c1nn2cc(-c3ccc(NC(=O)CN4CCN(CC(=O)O)CCN(CC(=O)Nc5ccc(-c6cn7nc(S(N)(=O)=O)sc7n6)cc5)CCN(CC(=O)O)CC4)cc3)nc2s1.[111In+3] [[^111In]ITDA2, [^111In]indium(III)2,2′-(4,10-bis(2-oxo-2-((4-(2-sulfamoylimidazo[2,1-b][1,3,4]thiadiazol-6-yl)phenyl)amino)ethyl)-1,4,7,10-tetraazacyclododecan-1,7-diyl) diacetic acid]	the inhibition was observed in the presence of acetazolamide	selectively bind to the CA-IX	the competitive inhibition was not observed	12.1 ± 3.7	109.2 ± 6.7	7.6 ± 2.3	48.3 ± 5.9	the inhibition was observed in the presence of acetazolamide	selectively bind to the CA-IX	0.7 ± 0.1	2.9 ± 0.4	1.4 ± 0.2	2.5 ± 0.5	the competitive inhibition was not observed	–
−3.47±0.09	–	NS(=O)(=O)c1nn2cc(-c3ccc(NC(=O)CCC(C(=O)O)N4CCN(CC(=O)[O-])CCN(CC(=O)[O-])CCN(CC(=O)[O-])CC4)cc3)nc2s1.[111In+3] (stereo not shown) [[^111In]ITDA3]	the inhibition was observed in the presence of acetazolamide	selectively bind to the CA-IX	the competitive inhibition was not observed	1.0 ± 0.1	93.4 ± 16.0	0.3 ± 0.0	47.2 ± 6.8	the inhibition was observed in the presence of acetazolamide	selectively bind to the CA-IX	0.1 ± 0.0	2.0 ± 1.1	0.2 ± 0.0	0.5 ± 0.1	the competitive inhibition was not observed	Stability (intact %) in mouse plasma ([6]; incubation for 1 to 24 hours): ≥ 95%; Stability (intact (%)) ([6]; 1 h): 97.4 ± 0.8%; Stability (intact (%)) ([6]; 4 h): 99.0 ± 0.6%; Stability (intact (%)) ([6]; 8 h): 98.0 ± 0.1%; Stability (intact (%)) ([6]; 24 h): 98.8 ± 0.4%
